The experiment deals with G. Stearothermophilus. As for the experimental part:
Tests were conducted in a 36 m^3 room without carpet (i.e., with tiled floor) and also in a 110 m^3 room with wall-to-wall carpet and configured to simulate a larger room with an attached bathroom with a door opening. Biological indicator (BI) test disks inoculated with 4-log, 5-log and 6-log populations of G. Stearothermophilus prepared by Mesa Labs were used.
BI test disks were placed at various locations within the room and doors and windows and other ventilation to the room was closed. Room temperature was not intentionally controlled, but was maintained at between about 22° C. and 26° C. The test area was pre-conditioned to a relative humidity of about 50%. A predetermined amount of biocide, a 35% hydrogen peroxide vapor, was rapidly injected into the room, with the rate of injection being about 50 g per minute or producing about 17.5 g of HP vapor per minute. The “inactivation time” or time from the initiation of the biocide injection through the residence time was a total of about 10 minutes. The room was then aerated until the concentration of biocide dropped to about 1 ppm. The overall cycle time was then calculated as the time for biocide injection, biocide contact or inactivation time, and the aeration time.

The structures appear in SMILES notation. Read-outs that look alike come from different tables or passages of the source.

Take `OO` [35% HP solution, hydrogen peroxide]: the “Kill Efficiency” value is on record as 5-log (Test 3: 36 m^3 room, injected mass 2.4 g/m^3, HP mass 86.4 g, injection time 12.7 min, injection rate 6.8 g/min (0.19 g/min/m3) of HP); 6-log (Test 4: 36 m^3 room, injected mass 2.4 g/m^3, HP mass 86.4 g, injection time 8.3 min, injection rate 10.4 g/min (0.29 g/min/m3) of HP); 5-log (Test 7: 36 m^3 room, injected mass 2 g/m^3, HP mass 72 g, injection time 12 min, injection rate 6.0 g/min (0.17 g/min/m3) of HP); 6-log (Test 8: 36 m^3 room, injected mass 2 g/m^3, HP mass 72 g, injection time 6.5 min, injection rate 11.1 g/min (0.31 g/min/m3) of HP); 5-log (Test 9: 36 m^3 room, injected mass 2 g/m^3, HP mass 72.7 g, injection time 9.6 min, injection rate 7.6 g/min (0.21 g/min/m3) of HP); 6-log (Test 10: 36 m^3 room, injected mass 2 g/m^3, HP mass 73.1 g, injection time 6.5 min, injection rate 11.2 g/min (0.31 g/min/m3) of HP). The “Kill Efficiency” value is, setting by setting: (Test 11: 36 m^3 room, injected mass 2.2 g/m^3, HP mass 79.6 g, injection time 13 min, injection rate 6.1 g/min (0.17 g/min/m3) of HP) 5-log; (Test 12: 36 m^3 room, injected mass 2.1 g/m^3, HP mass 74.9 g, injection time 4.3 min, injection rate 17.4 g/min (0.48 g/min/m3) of HP) 6-log; (Test A: 36-m^3 room, tile, injected mass 0.6 g/m^3, HP mass 22 g, injection rate 11.4 g/min, injection time 1.8 min, residence time 8.2 min) 4-log; (Test B: 36-m^3 room, tile, injected mass 0.7 g/m^3, HP mass 26 g, injection rate 11.0 g/min, injection time 2.4 min, residence time 7.6 min) 5-log; (Test C: 36-m^3 room, tile, injected mass 1.7 g/m^3, HP mass 59 g, injection rate 12.3 g/min, injection time 4.8 min, residence time 5.2 min) 6-log; (Test D: 100-m^3 room, carpet, second doorway with non-line-of-sight BI, injected mass 0.8 g/m^3, HP mass 91 g, injection rate 13.0 g/min, injection time 7.0 min, residence time 3.0 min) 5-log. Also, the “Kill Efficiency” value (Test E: 100-m^3 room, carpet, second doorway with non-line-of-sight BI, injected mass 1.8 g/m^3, HP mass 201 g, injection rate 21.1 g/min, injection time 9.5 min, residence time 0.5 min) is listed as 6-log.

The record behind these values is US10238761B1, “Method and an integrated device for an area decontamination process” (NANOMIST SYSTEMS, LLC, priority 2013, dated 2019).
